Among the data in patent US20110178053A1, “AZACARBOLINE DERIVATIVES, PREPARATION METHOD THEREOF AND THERAPEUTIC USE OF SAME” (SANOFI-AVENTIS, priority 2008, published 2011) are IC50 values, retold here.

pIC50: −log10 of the molar value.

A word on the pIC50: it is −log10 of the IC50, conventionally taken in molar units.

One assay addresses T1, Pim-1 (Homo sapiens, UniProt P11309).
T1 construct: His6-labelled recombinant full-length human Pim-1, Pim-2 or Pim-3 protein; His6; made in house
Kind of assay: TR-FRET assay, Pim-1 kinase (phosphorylation of Bad Ser112). In kind it is biochemical. The following applies: TR-FRET; ATP 40 μM; read-out: IC50 Pim1. Summed up: (§1)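 Recombinant His6-tagged full-length human Pim-1, Pim-2 or Pim-3 phosphorylates His6-tagged full-length human Bad at 40 μM ATP (apparent KM). Phospho-Ser112 is detected by TR-FRET between Eu-labelled anti-phosphoBad and APC-labelled anti-His6 (665/615 nm ratio); 10-point duplicate series, top typically 30 μM, IC50 from 4-parameter logistic fit.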
(In general: TR-FRET usually uses a lanthanide donor and a delayed reading to cut background.)

The next assay addresses T2, Pim-2 (Homo sapiens, UniProt Q9P1W9).
T2 construct: His6-labelled recombinant full-length human Pim-1, Pim-2 or Pim-3 protein; His6; made in house
Kind of assay: TR-FRET assay, Pim-2 kinase (phosphorylation of Bad Ser112). Format: biochemical. The following applies: TR-FRET; ATP 40 μM; read-out: IC50 Pim2. In short, it runs like this:
as §1

Another assay concerns the target T3, Pim-3 (Homo sapiens, UniProt Q86V86).
T3 construct: His6-labelled recombinant full-length human Pim-1, Pim-2 or Pim-3 protein; His6; made in house
Kind of assay: TR-FRET assay, Pim-3 kinase (phosphorylation of Bad Ser112). In kind it is biochemical. The note with it: TR-FRET; ATP 40 μM; read-out: IC50 Pim3. In short, it runs like this:
as §1

The target of the next assay is PLK1 (Homo sapiens, UniProt P53350). Kind of assay: PLK1 biochemical inhibition.
Sequence of PLK1 (P53350 whole entry, species assumed): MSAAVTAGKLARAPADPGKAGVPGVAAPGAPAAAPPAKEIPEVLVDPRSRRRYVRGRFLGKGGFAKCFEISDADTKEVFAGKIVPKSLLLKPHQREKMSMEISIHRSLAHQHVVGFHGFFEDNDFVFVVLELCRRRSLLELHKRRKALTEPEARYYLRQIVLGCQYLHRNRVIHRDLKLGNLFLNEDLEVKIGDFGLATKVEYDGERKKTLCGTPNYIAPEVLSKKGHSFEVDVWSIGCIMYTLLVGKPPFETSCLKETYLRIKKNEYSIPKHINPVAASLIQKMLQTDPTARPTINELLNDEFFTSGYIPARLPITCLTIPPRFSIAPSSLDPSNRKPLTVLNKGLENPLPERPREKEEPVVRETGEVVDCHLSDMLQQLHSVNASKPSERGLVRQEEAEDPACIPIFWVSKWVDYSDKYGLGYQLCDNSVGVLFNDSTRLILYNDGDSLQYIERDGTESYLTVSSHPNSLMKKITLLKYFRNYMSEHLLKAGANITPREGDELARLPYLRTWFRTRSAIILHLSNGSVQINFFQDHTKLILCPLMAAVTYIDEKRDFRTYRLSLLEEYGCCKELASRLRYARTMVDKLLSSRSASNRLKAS

T2 sequence (Q9P1W9 whole entry): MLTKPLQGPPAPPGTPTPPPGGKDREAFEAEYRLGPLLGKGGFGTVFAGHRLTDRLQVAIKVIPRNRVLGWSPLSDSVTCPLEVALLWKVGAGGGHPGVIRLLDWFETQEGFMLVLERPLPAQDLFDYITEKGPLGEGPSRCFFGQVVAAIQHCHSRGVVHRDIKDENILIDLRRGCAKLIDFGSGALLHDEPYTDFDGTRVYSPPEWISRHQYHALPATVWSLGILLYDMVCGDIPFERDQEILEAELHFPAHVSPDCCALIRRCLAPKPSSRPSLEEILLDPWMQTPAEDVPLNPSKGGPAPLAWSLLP
T1 sequence (P11309 whole entry): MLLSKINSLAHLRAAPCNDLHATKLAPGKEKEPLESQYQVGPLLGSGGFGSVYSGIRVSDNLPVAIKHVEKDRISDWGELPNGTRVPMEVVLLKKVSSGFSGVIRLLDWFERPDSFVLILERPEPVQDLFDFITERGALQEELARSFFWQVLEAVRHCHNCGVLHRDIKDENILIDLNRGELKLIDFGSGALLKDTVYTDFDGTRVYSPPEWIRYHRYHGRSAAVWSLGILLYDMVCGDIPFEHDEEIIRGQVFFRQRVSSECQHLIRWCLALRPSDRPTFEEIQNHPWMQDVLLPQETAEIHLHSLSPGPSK

`c1cncc(-c2cc3c(cn2)[nH]c2ncc(-c4ccc(N5CCOCC5)cc4)cc23)c1` [Example 121, 3-[4-(morpholin-4-yl)phenyl]-6-(pyrid-3-yl)-9H-pyrrolo[2,3-b:5,4-c′]-dipyridine]: the negative logarithm of the IC50 (pIC50) on Pim-1 was 7.00 to 9.00; on Pim-2, 5.30 to 6.00; on Pim-3, 7.00 to 9.00; at PLK1, 5.30 to 6.00.

As to `c1cncc(-c2cc3c(cn2)[nH]c2ncc(-c4cnn(CCN5CCOCC5)c4)cc23)c1` [Example 115, 3-{1-[2-(morpholin-4-yl)ethyl]-1H-pyrazol-4-yl}-6-(pyrid-3-yl)-9H-pyrrolo[2,3-b:5,4-c′]dipyridine], the pIC50 was 7.00 to 9.00 on Pim-1, 5.30 to 6.00 on Pim-2, 7.00 to 9.00 on Pim-3 and 5.30 to 6.00 at PLK1.

`Fc1cnc2[nH]c3cnc(-c4cccnc4)cc3c2c1C1CC1` [Example 32, 4-cyclopropyl-3-fluoro-6-(pyrid-3-yl)-9H-pyrrolo[2,3-b:5,4-c′]dipyridine]: the negative logarithm of the IC50 (pIC50) at Pim-1 is 7.00 to 9.00; at Pim-2, 5.30 to 6.00; at Pim-3, 7.00 to 9.00; at PLK1, 7.00 to 9.00.

For the molecule `c1cnc2[nH]c3cnc(-c4ccoc4)cc3c2c1` [Example 40, 6-furan-3-yl-9H-pyrrolo[2,3-b:5,4-c′]dipyridine], the pIC50 on Pim-1 was 6.00 to 7.00; at Pim-2, < 5.30; at Pim-3, 5.30 to 6.00; at PLK1, < 5.30.

With `Fc1cnc2[nH]c3cnc(-c4cccnc4)cc3c2c1-c1ccc(OCCN2CCOCC2)cc1` [Example 99, 3-fluoro-4-{4-[2-(morpholin-4-yl)ethoxy]phenyl}-6-(pyrid-3-yl)-9H-pyrrolo[2,3-b:5,4-c′]dipyridine], the negative logarithm of the IC50 (pIC50) on Pim-1 was 7.00 to 9.00; at Pim-2, 5.30 to 6.00; on Pim-3 it was 6.00 to 7.00; against PLK1, 6.00 to 7.00.

For the molecule `COc1cnc2[nH]c3cnc(-c4cnn(CCCCCNC(=O)OC(C)(C)C)c4)cc3c2c1` [Example 167, 2-methyl-2-propyl {5-[4-(3-methoxy-9H-pyrrolo[2,3-b:5,4-c′]dipyrid-6-yl)-1H-pyrazol-1-yl]pentyl}carbamate], the pIC50 at Pim-1 is 6.00 to 7.00; at Pim-2 it was 5.30 to 6.00; on Pim-3 it was 6.00 to 7.00; against PLK1, < 5.30.

For `CN1CCN(CCCn2cc(-c3cnc4[nH]c5cnc(-c6cccnc6)cc5c4c3)cn2)CC1` [Example 124, 3-{1-[3-(4-methyl-piperazin-1-yl)propyl]-1H-pyrazol-4-yl}-6-(pyrid-3-yl)-9H-pyrrolo[2,3-b:5,4-c′]-dipyridine], the pIC50 on Pim-1 was 7.00 to 9.00; at Pim-2, 6.00 to 7.00; on Pim-3, 7.00 to 9.00; on PLK1, 6.00 to 7.00.

Take `c1cncc(-c2cc3c(cn2)[nH]c2ncc(-c4cn[nH]c4)cc23)c1` [Example 126, 3-(1H-pyrazol-4-yl)-6-(pyrid-3-yl)-9H-pyrrolo-[2,3-b:5,4-c′]-dipyridine]: the negative-log IC50 (pIC50) on Pim-1 was 7.00 to 9.00; on Pim-2 it was < 5.30; at Pim-3, 6.00 to 7.00; against PLK1 it was 5.30 to 6.00.

As for `COc1cnc2[nH]c3cnc(-c4cnn(CC(=O)NCCN(C)C)c4)cc3c2c1` [Example 165, N-[2-(dimethylamino)ethyl]-2-[4-(3-methoxy-9H-pyrrolo[2,3-b:5,4-c′]dipyrid-6-yl)-1H-pyrazol-1-yl]acetamide], the negative logarithm of the IC50 (pIC50) on Pim-1 is 6.00 to 7.00; on Pim-2 it was < 5.30; on Pim-3, 6.00 to 7.00; at PLK1, < 5.30.

Consider `CCCN(C)C(=O)c1cnc2[nH]c3cnc(-c4cccnc4)cc3c2c1` [Example 6, N-methyl-N-propyl-6-(pyrid-3-yl)-9H-pyrrolo[2,3-b:5,4-c′]dipyridine-3-carboxamide], for which the pIC50 on Pim-1 was 6.00 to 7.00; on Pim-2 it was 5.30 to 6.00; on Pim-3, 5.30 to 6.00; at PLK1 it was < 5.30.

Regarding `COCCOc1cnc2[nH]c3cnc(-c4cccnc4)cc3c2c1` [Example 113, 3-(2-methoxyethoxy)-6-(pyrid-3-yl)-9H-pyrrolo[2,3-b:5,4-c′]dipyridine], the negative logarithm of the IC50 (pIC50) on Pim-1 is 7.00 to 9.00; on Pim-2 it was 5.30 to 6.00; at Pim-3, 7.00 to 9.00; against PLK1, 5.30 to 6.00.

Regarding `CS(=O)(=O)NCc1ccc(-c2c(F)cnc3[nH]c4cnc(-c5cccnc5)cc4c23)cc1` [Example 66, N-{4-[3-fluoro-6-(pyrid-3-yl)-9H-pynolo[2,3-b:5,4-c′]-dipyrid-4-yl]benzyl}-methanesulfonamide], the pIC50 at Pim-1 was 7.00 to 9.00; at Pim-2, 6.00 to 7.00; on Pim-3 it was 7.00 to 9.00; on PLK1, 7.00 to 9.00.

Regarding `COc1cc(-c2c(F)cnc3[nH]c4cnc(-c5cccnc5)cc4c23)ccc1NS(C)(=O)=O` [Example 47, N-{-4-[3-fluoro-6-(pyrid-3-yl)-9H-pyrrolo[2,3-b:5,4-c′]dipyrid-4-yl]-2-methoxyphenyl}-methanesulfonamide], the pIC50 on Pim-1 is 7.00 to 9.00; at Pim-2, 5.30 to 6.00; at Pim-3, 7.00 to 9.00; against PLK1, 6.00 to 7.00.

As for `O=C(c1c(F)cnc2[nH]c3cnc(-c4cccnc4)cc3c12)N1CCOCC1` [Example 36, [3-fluoro-6-(pyrid-3-yl)-9H-pyrrolo[2,3-b:5,4-c′]-dipyrid-4-yl](morpholin-4-yl)methanone], the negative logarithm of the IC50 (pIC50) at Pim-1 was 6.00 to 7.00; on Pim-2, < 5.30; at Pim-3, 5.30 to 6.00; at PLK1, 5.30 to 6.00.

Consider `Oc1ccc(-c2c(F)cnc3[nH]c4cnc(-c5cccnc5)cc4c23)cc1` [Example 95, 4-[3-fluoro-6-(pyrid-3-yl)-9H-pyrrolo[2,3-b:5,4-c′]dipyrid-4-yl]phenol], for which the pIC50 was 7.00 to 9.00 on Pim-1, 6.00 to 7.00 at Pim-2, 6.00 to 7.00 on Pim-3 and 7.00 to 9.00 against PLK1.

Turning to `CCN(CC)CCCN1CCN(c2c(F)cnc3[nH]c4cnc(-c5cccnc5)cc4c23)CC1` [Example 89, N,N-diethyl-3-{4-[3-fluoro-6-(pyrid-3-yl)-9H-pyrrolo[2,3-b:5,4-c′]dipyrid-4-yl]piperazin-1-yl}propan-1-amine], the pIC50 was 7.00 to 9.00 on Pim-1, 5.30 to 6.00 on Pim-2, 6.00 to 7.00 on Pim-3 and 5.30 to 6.00 against PLK1.

Regarding `O=S(=O)(CCl)Nc1ccc(-c2c(F)cnc3[nH]c4cnc(-c5cccnc5)cc4c23)cc1` [Example 45, 1-chloro-N-{4-[3-fluoro-6-(pyrid-3-yl)-9H-pyrrolo[2,3-b:5,4-c′]dipyrid-4-yl]-phenyl}-methanesulfonamide], the negative logarithm of the IC50 (pIC50) on Pim-1 is 7.00 to 9.00; at Pim-2 it was 5.30 to 6.00; on Pim-3 it was 7.00 to 9.00; against PLK1, 7.00 to 9.00.

As to `COc1ccccc1-c1c(F)cnc2[nH]c3cnc(-c4cccnc4)cc3c12` [Example 63, 3-fluoro-4-(2-methoxyphenyl)-6-(pyrid-3-yl)-9H-pyrrolo[2,3-b:5,4-c′]-dipyridine], the negative logarithm of the IC50 (pIC50) on Pim-1 is 7.00 to 9.00; on Pim-2, < 5.30; on Pim-3, 6.00 to 7.00; at PLK1, 7.00 to 9.00.

Turning to `CS(=O)(=O)NCc1cccc(-c2c(F)cnc3[nH]c4cnc(-c5cccnc5)cc4c23)c1` [Example 62, N-{3-[3-fluoro-6-(pyrid-3-yl)-9H-pyrrolo[2,3-b:5,4-c′]-dipyrid-4-yl]benzyl}-methanesulfonamide], the pIC50 on Pim-1 was 7.00 to 9.00; on Pim-2 it was 5.30 to 6.00; at Pim-3, 7.00 to 9.00; against PLK1, 7.00 to 9.00.

For `OCc1cccc(-c2cnc3[nH]c4cnc(-c5cccnc5)cc4c3c2)c1` [Example 118, {3-[6-(pyrid-3-yl)-9H-pyrrolo-[2,3-b:5,4-c′]-dipyrid-3-yl]-phenyl}methanol], the negative-log IC50 (pIC50) at Pim-1 was 7.00 to 9.00; on Pim-2 it was 6.00 to 7.00; at Pim-3, 7.00 to 9.00; at PLK1 it was 6.00 to 7.00.

For `CN(c1ccc(-c2c(F)cnc3[nH]c4cnc(-c5cccnc5)cc4c23)cc1)S(C)(=O)=O` [Example 48, N-{-4-[3-fluoro-6-(pyrid-3-yl)-9H-pyrrolo[2,3-b:5,4-c′]dipyrid-4-yl]-phenyl}-N-methyl-methanesulfonamide], the pIC50 is 7.00 to 9.00 on Pim-1, 6.00 to 7.00 at Pim-2, 7.00 to 9.00 at Pim-3 and 6.00 to 7.00 on PLK1.

Consider `CCOc1cnc2[nH]c3cnc(-c4cccnc4)cc3c2c1` [Example 112, 3-ethoxy-6-(pyrid-3-yl)-9H-pyrrolo[2,3-b:5,4-c′]dipyridine], for which the pIC50 was 7.00 to 9.00 on Pim-1, 6.00 to 7.00 at Pim-2, 7.00 to 9.00 on Pim-3 and 6.00 to 7.00 on PLK1.

Consider `Cn1ccc(-c2cnc3[nH]c4cnc(-c5cccnc5)cc4c3c2)n1` [Example 116, 3-(1-methyl-1H-pyrazol-3-yl)-6-(pyrid-3-yl)-9H-pyrrolo[2,3-b:5,4-c′]dipyridine], for which the negative logarithm of the IC50 (pIC50) was 7.00 to 9.00 at Pim-1, < 5.30 at Pim-2, 7.00 to 9.00 at Pim-3 and 5.30 to 6.00 at PLK1.

`OC(COc1ccc(-c2c(F)cnc3[nH]c4cnc(-c5cccnc5)cc4c23)cc1)CN1CCOCC1` (stereo not shown) [Example 101, 1-{4-[3-fluoro-6-(pyrid-3-yl)-9H-pyrrolo[2,3-b:5,4-c′]dipyrid-4-yl]phenoxy}-3-(morpholin-4-yl)propan-2-ol]: the pIC50 on Pim-1 was 7.00 to 9.00; at Pim-2, 6.00 to 7.00; at Pim-3, 7.00 to 9.00; against PLK1, 7.00 to 9.00.

Consider `CCCNc1cnc2[nH]c3cnc(-c4cccnc4)cc3c2c1` [Example 110, N-propyl-6-(pyrid-3-yl)-9H-pyrrolo[2,3-b:5,4-c′]dipyrid-3-amine], for which the pIC50 on Pim-1 is 7.00 to 9.00; at Pim-2 it was 5.30 to 6.00; at Pim-3 it was 6.00 to 7.00; on PLK1, 5.30 to 6.00.
